Measurements published in US12415834B2, “GhR-binding peptide and composition comprising same” (priority 2021, dated 2025).
Where two headings read alike, the source gives them in different places. Starred links: 1 amine or outer side, 2 acyl side, 3 side chain; linkers in the order of their positions; H or OH if unused. Positions of bridges follow the written chain, without caps; N, C: chain ends. Non-standard residues stand in square brackets, D forms with d. Residues, ends and D or L forms follow the SMILES beside them. Groups on a side chain read outwards from the residue. *: point of attachment. X3 = NC(=O)[C@H](CCCCN*)NC(=O)CC[C@H](NC(=O)CC[C@H](NC(=O)CCCCCCCCCCCCCCC(=O)O)C(=O)O)C(=O)O; X17 = NC(=O)[C@H](CCCCN*)NC(=O)CC[C@H](NC(=O)CCCc1ccc(I)cc1)C(=O)O; Trp(1-CH2CO) = O=C([C@H](Cc1cn(CC(=O)[*:3])c2ccccc12)N[*:1])[*:2]; Trp(5-OMe) = COc1ccc2[nH]cc(C[C@H](N)C(=O)O)c2c1; Butanoyl(4-(4-I-phenyl)) = O=C(CCCc1ccc(I)cc1)*; Trp(5-OH) = N[C@@H](Cc1c[nH]c2ccc(O)cc12)C(=O)O; Phe(4-COOH) = N[C@@H](Cc1ccc(C(=O)O)cc1)C(=O)O; Piperazinyl(4-CH2COOH) = O=C(O)CN1CCN(*)CC1; X7 = O=C(O)CN1CCC(N[*:1])(C(=O)[*:2])CC1; γGlu = O=C(O)[C@H](CCC(=O)[*:2])N[*:1]; NMeK = CN[C@@H](CCCCN)C(=O)O; Aib = CC(C)(N)C(=O)O; CO = O=C([*:1])[*:2]

Biological target: T1, Recombinant human GhR-Fc protein (Homo sapiens, UniProt P10912)
T1 construct: purchased R&D Systems
Experiment: SPR binding assay (Biacore T200, single-cycle kinetics) of peptides against immobilized human GhR-Fc
Conditions: SPR, hGhR, KD calculated from ka and kd, read-out: KD
Procedure: SPR assay was performed using Biacore T200 (cytiva: Former GE Healthcare). After the equilibration of Series S Sensor Chip CM5 (produced by cytiva: Former GE Healthcare) with Running Buffer (HBS-EP with 1% (v/v) DMSO), an EDC/NHS mixture was injected at a flow rate of 10 μL/min for 7 minutes to thereby activate the functional groups on sensor chip. Recombinant human GhR-Fc protein (R&D Systems) in 10 mM Acetate (pH 4.0) was injected immobilized to at a flow rate of 5 μL/min. It took 7 minutes to immobilize the GhR on the substrate surfaces of the sensor chip. Then Ethanolamine was injected at a flow rate of 10 μL/min for 7 minutes. 1M Ethanolamine (aq.) was injected at a flow rate of 10 μL/min for 420 seconds for capping.
Using these Peptide Samples, kinetics of peptides against human GhR-Fc protein were measured. The method adopted for sample measurement was a single-cycle kinetics method. The analysis was conducted using the evaluation software provided with Biacore T200. A DMSO correction curve obtained by solvent correction measurements was applied for the analysis. Kinetics fitting was done on the difference data obtained by subtracting the baseline data from sample measurement data. KD values were calculated based on the association rate constant (ka) and dissociation rate constant (kd). […]

T1 sequence (P10912 with tags, fused parts or gaps limits assumed): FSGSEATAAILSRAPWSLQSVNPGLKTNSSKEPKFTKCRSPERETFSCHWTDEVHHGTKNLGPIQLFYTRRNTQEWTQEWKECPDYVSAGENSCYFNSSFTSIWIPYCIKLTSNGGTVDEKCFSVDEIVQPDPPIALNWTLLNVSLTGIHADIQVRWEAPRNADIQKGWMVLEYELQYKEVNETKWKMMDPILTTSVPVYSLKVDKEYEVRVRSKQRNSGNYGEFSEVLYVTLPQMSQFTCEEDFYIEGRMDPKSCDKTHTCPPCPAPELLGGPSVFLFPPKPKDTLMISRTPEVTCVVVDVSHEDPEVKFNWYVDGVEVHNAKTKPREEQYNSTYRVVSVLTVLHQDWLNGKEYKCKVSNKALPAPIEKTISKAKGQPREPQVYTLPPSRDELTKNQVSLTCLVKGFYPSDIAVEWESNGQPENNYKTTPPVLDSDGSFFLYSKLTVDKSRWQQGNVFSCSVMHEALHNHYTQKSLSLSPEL

SMILES	Kd (Table 1 bicyclic peptides)	Kd (Table 2 monocyclic peptides)
CC(C)[C@@H]1NC(=O)[C@H](C(C)C)NC(=O)[C@@H]2CCCCNC(=O)Cn3cc(c4ccccc43)C[C@H](NC(=O)[C@H](CC(N)=O)NC(=O)[C@H](CO)NC1=O)C(=O)N[C@@H](Cc1ccc(O)cc1)C(=O)N[C@@H](CCCCNC(=O)N1CCN(CC(=O)O)CC1)C(=O)N[C@@H](Cc1c[nH]c3ccc(O)cc13)C(=O)NC(C)(C)C(=O)N[C@@H](C(C)C)C(=O)N[C@H](C(=O)NCCCC[C@H](NC(=O)CC[C@H](NC(=O)CC[C@H](NC(=O)CCCCCCCCCCCCCCC(=O)O)C(=O)O)C(=O)O)C(N)=O)CSCC(=O)N[C@@H](Cc1ccc(C(=O)O)cc1)C(=O)N2C [Compound 17] ({CH2CO}-[Phe(4-COOH)][NMeK]VVSN[Trp(1-CH2CO)]YK([CO-Piperazinyl(4-CH2COOH)])[Trp(5-OH)][Aib]VC-X3; lactam 2-7; thioether N-13)	4.1 nM	
COc1ccc2[nH]cc(C[C@@H]3NC(=O)[C@H](CC(N)=O)NC(=O)[C@H](CO)NC(=O)[C@H](C(C)C)NC(=O)[C@H](C(C)C)NC(=O)[C@H](CCCCNC(=O)CC[C@H](NC(=O)CCCc4ccc(I)cc4)C(=O)O)N(C)C(=O)[C@H](Cc4ccc(C(=O)O)cc4)NC(=O)CSC[C@@H](C(N)=O)NC(=O)[C@H](C(C)C)NC(=O)C(C)(C)NC(=O)[C@H](Cc4c[nH]c5ccc(O)cc45)NC(=O)[C@H](CCCCNC(=O)N4CCN(CC(=O)O)CC4)NC(=O)[C@H](Cc4ccc(C(=O)O)cc4)NC3=O)c2c1 [Compound 35] ({CH2CO}-[Phe(4-COOH)][NMeK]([γGlu-Butanoyl(4-(4-I-phenyl))])VVSN[Trp(5-OMe)][Phe(4-COOH)]K([CO-Piperazinyl(4-CH2COOH)])[Trp(5-OH)][Aib]VC-NH2; thioether N-13)		5.47 nM
CC(C)[C@@H]1NC(=O)[C@H](C(C)C)NC(=O)[C@@H]2CCCCNC(=O)Cn3cc(c4ccccc43)C[C@H](NC(=O)[C@H](CC(N)=O)NC(=O)[C@H](CO)NC1=O)C(=O)N[C@@H](Cc1ccc(C(=O)O)cc1)C(=O)N[C@@H](CCCCN)C(=O)N[C@@H](Cc1c[nH]c3ccc(O)cc13)C(=O)NC(C)(C)C(=O)N[C@@H](C(C)C)C(=O)N[C@H](C(=O)NCCCC[C@H](NC(=O)CC[C@H](NC(=O)CCCc1ccc(I)cc1)C(=O)O)C(N)=O)CSCC(=O)N[C@@H](Cc1ccc(C(=O)O)cc1)C(=O)N2C [Compound 13] ({CH2CO}-[Phe(4-COOH)][NMeK]VVSN[Trp(1-CH2CO)][Phe(4-COOH)]K[Trp(5-OH)][Aib]VC-X17; lactam 2-7; thioether N-13)	1.36 nM	
COc1ccc2[nH]cc(C[C@@H]3NC(=O)[C@H](CC(N)=O)NC(=O)[C@H](CO)NC(=O)[C@H](C(C)C)NC(=O)[C@H](C(C)C)NC(=O)[C@H](CCCCNC(=O)CC[C@H](NC(=O)CC[C@H](NC(=O)CCCc4ccc(I)cc4)C(=O)O)C(=O)O)N(C)C(=O)[C@H](Cc4ccc(O)cc4)NC(=O)CSC[C@@H](C(N)=O)NC(=O)[C@H](C(C)C)NC(=O)C(C)(C)NC(=O)[C@H](Cc4c[nH]c5ccc(O)cc45)NC(=O)[C@H](CCCCN)NC(=O)[C@H](Cc4ccc(C(=O)O)cc4)NC3=O)c2c1 [Compound 53] ({CH2CO}-Y[NMeK]([γGlu-γGlu-Butanoyl(4-(4-I-phenyl))])VVSN[Trp(5-OMe)][Phe(4-COOH)]K[Trp(5-OH)][Aib]VC-NH2; thioether N-13)		3.36 nM
CC(C)[C@@H]1NC(=O)[C@H](C(C)C)NC(=O)[C@@H]2CCCCNC(=O)Cn3cc(c4ccccc43)C[C@H](NC(=O)[C@H](CC(N)=O)NC(=O)[C@H](CO)NC1=O)C(=O)N[C@@H](Cc1ccc(O)cc1)C(=O)N[C@@H](CCCCN)C(=O)N[C@@H](Cc1c[nH]c3ccc(O)cc13)C(=O)NC1(CCN(CC(=O)O)CC1)C(=O)N[C@@H](C(C)C)C(=O)N[C@H](C(=O)NCCCC[C@H](NC(=O)CC[C@H](NC(=O)CC[C@H](NC(=O)CCCCCCCCCCCCCCC(=O)O)C(=O)O)C(=O)O)C(N)=O)CSCC(=O)N[C@@H](Cc1ccc(C(=O)O)cc1)C(=O)N2C [Compound 18] ({CH2CO}-[Phe(4-COOH)][NMeK]VVSN[Trp(1-CH2CO)]YK[Trp(5-OH)][X7]VC-X3; lactam 2-7; thioether N-13)	2.4 nM	
